Experimental data reported in ChEMBL document CHEMBL2346539, “Effects of geraniin on osteoclastic bone resorption and matrix metalloproteinase-9 expression” (2013).
The source made the active and inactive calls. No cut-off for these calls is given here.

Assays:
[1] = Reduction of MMP9 protein expression in rat osteoclasts assessed as reduction in integral optical density by immunocytochemistry analysis; type: functional, cell-based; details: Osteoclast
[2] = Reduction of MMP9 protein expression in rat osteoclasts assessed as reduction in mean optical density by immunocytochemistry analysis; type: functional, cell-based; details: Osteoclast
[3] = Reduction of MMP9 mRNA expression in rat osteoclasts assessed as reduction in integral optical density at 10^-8 mol/L by in situ hybridization assay; type: functional, cell-based; details: Osteoclast
[4] = Reduction of MMP9 mRNA expression in rat osteoclasts assessed as reduction in mean optical density at 10^-8 mol/L by in situ hybridization assay; type: functional, cell-based; details: Osteoclast
Osteoclast [5] = test: Inhibition of rat osteoclasts-induced resorption in bovine bone co-cultured for 72 hrs using toluidine blue staining by SEM analysis; type: functional, cell-based
Osteoclast [6] = test: Reduction in number of resorption pits in rat osteoclasts-stimulated bovine bone at 10^-8 mol/L co-cultured for 72 hrs using toluidine blue staining by SEM analysis; type: functional, cell-based
Osteoclast [7] = test: Inhibition of rat osteoclasts-induced resorption in bovine bone at 10^-8 mol/L co-cultured for 72 hrs using toluidine blue staining by SEM analysis; type: functional, cell-based
Bone [8] = test: Inhibition of osteoclastogenesis in Sprague-Dawley rat bone assessed as inhibition of fusion index at 10^-10 mol/L after 72 hrs by microscopy; type: functional; details: Bone element
Bone [9] = test: Inhibition of osteoclastogenesis in Sprague-Dawley rat bone assessed as inhibition of fusion index at 10^-11 mol/L after 72 hrs by microscopy; type: functional; details: Bone element
Bone [10] = test: Inhibition of osteoclastogenesis in Sprague-Dawley rat bone assessed as inhibition of fusion index at 10^-9 mol/L after 72 hrs by microscopy; type: functional; details: Bone element
Bone [11] = test: Reduction in number of pre-osteoclasts in Sprague-Dawley rat bone at 10^-8 mol/L after 72 hrs by microscopy; type: functional, tissue-based; details: Bone element
Bone [12] = test: Inhibition of osteoclastogenesis in Sprague-Dawley rat bone assessed as inhibition of fusion index at 10^-8 mol/L after 72 hrs by microscopy; type: functional; details: Bone element
Bone [13] = test: Inhibition of osteoclastogenesis in Sprague-Dawley rat bone assessed as decrease in TRAP-positive multi-nucleated cells at 10^-8 mol/L after 72 hrs by microscopy; type: functional, tissue-based; details: Bone element
Bone [14] = test: Inhibition of osteoclastogenesis in Sprague-Dawley rat bone assessed as decrease in TRAP-positive multi-nucleated cells after 72 hrs by microscopy; type: functional, tissue-based; details: Bone element

O=C1O[C@H]2[C@@H]3OC(=O)c4cc(O)c(O)c(O)c4-c4c(cc(O)c(O)c4O)C(=O)OC[C@H]2O[C@@H](OC(=O)c2cc(O)c(O)c(O)c2)[C@@H]3OC(=O)c2cc(O)c(O)c3c2[C@@H]2C1=CC(=O)[C@](O)(O3)C2(O)O [GERANIIN]
Activity [1]: Dose-dependent effect
Activity [2]: Dose-dependent effect
Activity [3]: Active
Activity [4]: Active
inhibition (Osteoclast [5]): Dose-dependent effect
Activity (Osteoclast [6]): Active
inhibition (Osteoclast [7]): Active
inhibition at 0.0001 µM (Bone [8]): 9.31%
inhibition at 10 pM (Bone [9]): 3.05%
inhibition at 0.001 µM (Bone [10]): 24.2%
Activity (Bone [11]): Active
inhibition at 0.01 µM (Bone [12]): 46%
inhibition (Bone [13]): Active
inhibition (Bone [14]): Dose-dependent effect
